Entries after “also recorded” stand apart in the source; their conditions may differ.
How the values were obtained:
other Y receptors = conditions: cited from earlier work; for Effects at other Y receptors, in words: ref [15]; for Binding to other Y receptors, in words: ref [23]
[1] = cited from earlier work; for Effect on central regulation of feeding behavior, in words: peripheral administration, ref [15], [45]
[2] = system: IV γ-MSH cardiovascular response; assay: BIBO3304 effect on IV γ-MSH and γ-MSH6–12 cardiovascular responses; assay type: in vivo, rat (Sprague Dawley)
NPFF receptors = conditions: ref [16]–[19]; cited from earlier work
[3] = system: IV NPY cardiovascular response; assay: BIBO3304 effect on IV NPY, NPY analog and ANG II cardiovascular responses; assay type: in vivo, rat (Sprague Dawley); conditions: for PRE vs POST BIBO3304 pressor response, in words: IV peptide
[4] = cited from earlier work
[5] = IV peptide MAP and HR cardiovascular responses in urethane-anesthetized rats; assay type: in vivo, rat (Sprague Dawley); conditions: for Increase in MAP: IV, compare Fig. 5a with Fig. 4b; for Increase in MAP / Cardiovascular response (MAP and HR), in words: rats; for Cardiovascular response (MAP and HR), in words: IV γ-MSH 15 nmol or NPY 5 nmol
rat Y1 receptor = assay: Rat Y1 receptor binding, competition with 125I-pPYY; conditions: competition with iodinated PYY; CHO cells expressing rat Y1 receptor
[6] = system: sensory neuron-specific receptor (SNSR1); conditions: ref [65], [66]; cited from earlier work
Y1 receptor = assay type: cell-based; conditions: 50 nM, HEK tsA201 cells expressing Y1 receptor and N-type VDCC; for Reduction of IBa (N-type VDCC barium current): whole-cell, 22°C, pH 7.20
[7] = ref [8], cited from earlier work
[8] = system: sensory neuron-specific receptor (SNSR1); conditions: ref [65], [66]; cited from earlier work; remark: listed apart in the source
[9] = central BIBO3304, summary in Discussion
[10] = ICV BIBO3304, NPY 5 nmol IV, PRE vs POST, n = 7
[11] = NPY 5 nmol IV, change from baseline, mean ± standard error

NC(=O)NCc1ccc(CNC(=O)[C@@H](CCCN=C(N)N)NC(=O)C(c2ccccc2)c2ccccc2)cc1 [BIBO3304]
Effects at other Y receptors, in words (other Y receptors): not reported to have significant effects at other Y receptors | Binding to other Y receptors, in words (other Y receptors): none of these receptors shows significant binding of BIBO3304 | Effect on central regulation of feeding behavior, in words [1]: affects central regulation of feeding behavior | Attenuation of total γ-MSH pressor response (MAP curve area, height × width) ([2]; ICV BIBO3304, IV γ-MSH, PRE vs POST, n = 7): > 60% | Attenuation of MAP response of γ-MSH or γ-MSH6–12 (either peptide) ([2]; ICV BIBO3304, several IV doses of γ-MSH and γ-MSH6–12, subsequent study): > 50% | Attenuation of pressor responses of γ-MSH and γ-MSH6–12, in words ([2]; IV or ICV BIBO3304, peptide IV): significantly attenuated the pressor responses of γ-MSH and the γ-MSH analog | Reduction in total γ-MSH pressor response ([2]; central BIBO3304, IV γ-MSH, summary in Discussion): 75% | Inhibition of HR response to several IV γ-MSH doses [2, 9]: ~50% | Inhibition of peak MAP response to several IV γ-MSH doses [2, 9]: ~50% | Change in baseline cardiovascular parameters ([2]; central or peripheral BIBO3304 alone, n = 7): no significant changes in any baseline cardiovascular parameters | Binding at NPFF receptors, in words (NPFF receptors): nanomolar-binding efficacy at NPFF receptors | Area under the MAP response curve, effect of BIBO3304, in words ([3]; ICV BIBO3304, IV NPY agonists 5 nmol): Only the area under the NPY MAP response curve is reduced by drug treatment | Effect on IV NPY cardiovascular response, in words ([3]; ICV BIBO3304, NPY 5 nmol IV): significant decrease in the IV NPY cardiovascular response; also recorded: blood pressure responses of NPY are significantly reduced | Decrease in IV NPY-induced MAP response [3, 10]: > 40% | Decrease in total NPY pressor response (MAP curve area) [3, 10]: > 70% | Effect on γ-MSH6–12 and NPY-CVa MAP responses, in words ([3]; ICV BIBO3304, two graded doses of either peptide IV (Fig. 5a)): produced significant MAP reductions for both doses of either peptide | Effect on (D-Arg25) NPY MAP / total pressor response, in words ([3]; ICV or IV BIBO3304, (D-Arg25) NPY IV): did not change the MAP response of D-Arg25 NPY; also recorded: did not significantly affect the MAP response or total pressor response of a Y1 receptor agonist (D-Arg25) NPY; also recorded: no significant effect on D-Arg25 NPY | Effect on γ-MSH6–12 and NPY-CVa MAP responses, in words (IV BIBO3304) ([3]; IV BIBO3304, two graded doses IV (Fig. 5b)): significant reductions in MAP for both doses of γ-MSH6–12 and NPY-CVa | Effect on IV NPY-CVa cardiovascular activity, in words ([3]; central or peripheral BIBO3304, NPY-CVa IV): IV NPY-CVa cardiovascular activity was sensitive to central or peripheral BIBO3304 administration | Reduction of IV NPY-CVa pressor response ([3]; central or systemic BIBO3304, NPY-CVa 5 or 20 nM doses (so in the source) IV): up to 55%

NC(N)=NCCC[C@@H](NC(=O)C(c1ccccc1)c1ccccc1)C(=O)NCc1ccc(O)cc1 [BIBP3226]
Effects at other Y receptors, in words (other Y receptors): not reported to have significant effects at other Y receptors | Effect on central regulation of feeding behavior, in words [1]: affects central regulation of feeding behavior | Binding at NPFF receptors, in words (NPFF receptors): nanomolar-binding efficacy at NPFF receptors

(D-Arg25) NPY
PRE vs POST BIBO3304 pressor response, in words ([3]; ICV or IV BIBO3304, listed as (D-Arg^25) NPY): not significantly different | PRE vs POST BIBO3304 pressor response, in words ([3]; ICV or IV BIBO3304, listed as D-Arg25 NPY): lack of a significant difference in the PRE and POST cardiovascular responses

Des-AA10–17-cyclo-7/21[Cys7,21, Pro34] NPY [NPY-CVa]
Pressor activity of NPY-CVa, in words ([4]; ref [26]): significant pressor activity | Binding to other Y receptors, in words (other Y receptors): significant binding to other Y receptors | Orexigenic activity, in words ([1]; ref [23], [26]): without orexigenic activity; also recorded: lacks Y1-like orexigenic activity | Increase in MAP ([5]; mean ± standard error): 26 ± 3 mmHg

FMRFamide
Competition for rat Y1 receptor binding, in words (rat Y1 receptor): failed to bind to these receptors; also recorded: Neither γ-MSH nor FMRFamide (a model RFamide peptide) competed with iodinated PYY for binding to the rat Y1 receptors

angiotensin II [ANG II]
Peak MAP response, POST ICV BIBO3304 ([3]; IV ANG II 5 nmol, POST, mean ± standard error): 54 ± 2 mmHg | Peak MAP response, PRE ICV BIBO3304 ([3]; IV ANG II 5 nmol, PRE, mean ± standard error): 66 ± 6 mmHg | PRE vs POST BIBO3304 pressor response, in words ([3]; ICV or IV BIBO3304): not significantly different at pre and post central BIBO3304 administration | PRE vs POST BIBO3304 pressor response, in words ([3]; ICV or IV BIBO3304, listed as AII): not significantly different

gamma-melanocyte stimulating hormone [γ-MSH]
Pressor response after forebrain CVO lesions, in words ([4]; IV, forebrain CVO lesions, ref [42]): attenuation of the IV γ-MSH cardiovascular response | Rightward shift of pressor dose–response curve ([4]; carotid versus femoral artery administration, ref [31]): 10 fold | Mechanism of MAP and HR effects / baroreceptor reflex, in words ([4]; ref [9]–[11], [33]): total inhibition of the baroreceptor reflex; also recorded: MAP and HR effects are due to an increase in preganglionic sympathetic drive, with no contribution of adrenal medullary catecholamine release | SNSR1 activation [6]: ~40 nM | Competition for rat Y1 receptor binding, in words (rat Y1 receptor): failed to compete with iodinated PYY for binding to the rat Y1 receptor; also recorded: Neither γ-MSH nor FMRFamide (a model RFamide peptide) competed with iodinated PYY for binding to the rat Y1 receptors | Effect on N-type VDCC / IBa, in words (Y1 receptor): does not affect Y1 receptor agonist binding capacity or signaling; also recorded: did not bind to or allosterically regulate the Y1 receptor; also recorded: neither γ-MSH nor γ-MSH6–12 affected VDCC activity; also recorded: did not produce a significant inhibition of IBa relative to control | Reduction of IBa (N-type VDCC barium current) (Y1 receptor): 3–9% | Rise in MAP ([7]; mouse models): 38 mmHg | Pressor effect in MC3-R and MC4-R knockout mice, in words ([7]; peripheral administration): these effects can be elicited following peripheral administration of γ-MSH in the MC3-R and MC4-R knockout mice | Cardiovascular response (MAP and HR), in words [5]: produced both pressor and cardioaccelerator effects, with no evidence of a baroreceptor-mediated bradycardia; also recorded: produces a marked pressor and tachycardia response

neuropeptide Y [NPY]
SNSR1 binding, in words [8]: nanomolar NPY binding | Effect on N-type VDCC / IBa, in words (Y1 receptor): significant decreases in N-type VDCC activity; also recorded: significantly different from the effects of γ-MSH or γ-MSH6–12 | Reduction of IBa (N-type VDCC barium current) (Y1 receptor): ~50% | Duration of pressor response, in words ([5]; IV NPY 5 nmol compared to γ-MSH, P <0.05, n = 7): lasted significantly longer than that of γ-MSH for a relatively similar change in peak MAP | Cardiovascular response (MAP and HR), in words [5]: during the mid-point of the pressor response the bradycardia reversed to a cardioaccelerator response; also recorded: produces prolonged pressor and HR responses | Increase in MAP ([5]; mean ± standard error): 41.9 ± 4 mmHg | Peak bradycardia response [5, 11]: −53 ± 18 BPM | Peak tachycardia response [5, 11]: 49 ± 14 BPM | Baseline HR ([5]; baseline of the NPY 5 nmol IV group, mean ± standard error): 360 ± 11 BPM

From paper PMC2714906 (Endocrine, 2009)
